Reference: patent US10869931B2, “Polyethylene glycol-modified angiogenesis inhibitor HM-1 and application thereof” (NANJING ANJI BIOLOGICAL TECHNOLOGY CO.,LTD, priority 2016, dated 2020)
Values joined by “and” are separate entries in the source; they are usually repeats but may differ in a detail not shown here. Equal entries are not always repeated. Marks after values point to notes of the source that are not given here.

What was measured:
mouse spleen lymphocytes = experiment: ConA-stimulated mouse spleen lymphocyte proliferation (MTT); format: cell-based; conditions: 20 μg/mL, ConA 5 μg/mL, 48 h
Method: Tris-NH4Cl was used to break the red blood cells, and the cells were allowed to stand in an ice water bath for 4 min, centrifuged (1000 rpm×5 min), the supernatant was discarded, and the cells were washed twice with sterile PBS. Finally, cells were suspended in RPMI 1640 medium (5 mL) supplemented with 10% calf serum, counted, adjusted to a cell concentration of 5×10^6/mL, and cultured in a 96-well culture plate The test group consisted of blank control group, concanavalin A (ConA) group, dexamethasone (Dex) group (0.02 mg/mL) and mPEG-HM-1 group. […] The cells were cultured in a 37° C. cell culture chamber for 48 h. After the completion of the culture, 20 μL of MTT was added to each well, and the culture was continued for 4 h. Finally, all the solutions in each well were discarded, 100 μL of DMSO was added to each well, and the mixture was shaken and detected by a microplate reader OD value at 570 nm, 5 parallels per hole.

[1] = system: IL-1β production by mouse peritoneal macrophages; experiment: IL-1β production by mouse peritoneal macrophages (ELISA); format: cell-based; conditions: 20 μg/mL, 48 h
Method: (1) IL-1β production: mice were intraperitoneally injected with 1 mL of broth (containing 6%) starch, and three days later, the mouse peritoneal macrophages were aseptically taken, washed twice with 1640 medium, and the cell concentration was adjusted to 2×10^6 cells/mL, inject into a 24-well culture plate, 1 mL per well, incubate for 3 hours in a cell culture incubator, shake once every 30 minutes, and allow the cells to fully adhere. Then, it was washed twice with the culture solution to remove unattached cells. The blank group was added with PBS, the positive group was added with the positive drug dexamethasone (Dex), the model group was not administered, to the experimental group was added low, medium and high three concentrations of mPEG-HM-1, and the culture was continued for 48 hours after the administration, 1000 r/min. Centrifuge for 15 min. The supernatant was taken as a sample for testing activity of IL-1β.
(2) Determination of IL-1β content: using R&D mouse IL-1β enzyme-linked immunosorbent assay kit, according to the kit instructions as follows: respectively, the tested samples and different concentrations of standard products, sealed with sealing tape the reaction well and incubated at 37° C. for 90 min; the plate was washed four times; the biotinylated antibody working solution (100 μL/well) was added, and the reaction well was sealed with sealing paper, incubated at 37° c. for 60 min; the plate was washed four times; Add the enzyme conjugate working solution (100 μL/well), seal the reaction well with sealing paper, incubate at 37° C. for 30 min; wash the plate four times; add color reagent (100 μL/well), incubate at 37° C. 10-20 min, add stop solution (100 μL/well), mix and measure OD450 value.

[2] = system: xylene-induced ear swelling in Kunming mice; experiment: Xylene-induced ear swelling in mice; format: in vivo, mouse; conditions: 200 mg/kg (positive control) once daily for 5 days
Method: Kunming mice were used. The saline group was used as the blank control group, the aspirin group (200 mg/kg) as the positive control group, and the mPEG-HM-1 administration group as the experimental group. Mice were administered once daily for 5 consecutive days. The blank control group was given an equal volume of physiological saline. One hour after the last administration, 0.05 mL of xylene was applied to both sides of the right ear of the mice to cause inflammation, and the left ear was not coated as normal ears. After 2 h, the mice were sacrificed by dislocation, and the ears were cut along the auricle. Ear pieces were taken with a puncher, weighed, and the swelling degree and swelling rate were calculated. Swelling degree=right ear piece weight-left ear piece weight, swelling rate=(swelling degree/left ear piece weight)×100%. Statistical t-test was performed on the test results, *P<0.05 was a significant difference, and **P<0.01 was a very significant difference. See Table 31 to Table 34 for the results.

[3] = system: Human Umbilical Vein Endothelial Cells (HUVEC); experiment: Transwell migration of HUVEC; format: cell-based; conditions: 10 μg/mL, 24 h
Method: 10 mg/mL Matrigel was diluted 1:2 with HUVEC-specific medium, spread on a transwell chamber membrane, and air-dried at room temperature. HUVEC cells cultured in logarithmic growth phase were digested with trypsin digest, collected, washed twice with PBS, and resuspended in blank HUVECs-specific medium. The cells were counted under a microscope, and the cell concentration was adjusted to 1×10^5/mL. The test solutions of each group were prepared and diluted to 100 μL with a blank HUVECs-specific medium. The cells were seeded into a transwell chamber at 100 μL per well, and each set of test solution was added to the chamber. The cell culture was stimulated by adding 0.6 mL of endothelial cell culture medium containing 5% fetal bovine serum and 1% ECGS into a 24-well plate, and cultured at 5% CO2 for 24 hour at 37° c. Discard the culture medium in the well, fix it with 90% alcohol at room temperature for 30 minutes, 0.1% crystal violet for 10 min at room temperature, rinse with water, gently wipe off the unsprayed cells in the upper layer with a cotton swab, observe under microscope and select four fields to take pictures. Calculate migration inhibition (MI) according to the formula: […]
Ntest was the number of cell migration in the test group, and Ncontrol was the number of cell migration in the blank control group.
The test was repeated 3 times independently. The results obtained from the test were calculated as mean±SD, and a statistical T test was performed. *P<0.05 was a significant difference, and **P<0.01 was a very significant difference.

[4] = system: human retinal vascular endothelial cells (HRCEC); experiment: MTT proliferation of human retinal vascular endothelial cells; format: cell-based; conditions: 10 μg/mL (positive control), 48 h
Method: The activity of the angiogenesis inhibitor polypeptide to inhibit proliferation of human retinal vascular endothelial cells was examined by MTT assay. HRCEC cells were cultured in a 37° C., 5% CO2 incubator to a density of 90% or more, and collected by trypsinization. The cells were resuspended in the culture medium and counted under a microscope to adjust the cell concentration to 3.0×10^4 cells/mL. The cell suspension was inoculated into a 96-well plate at 100 μL per well and cultured overnight at 37° C. in a 5% CO2 incubator. After the cells were completely adhered, the angiogenesis inhibitor polypeptide was added as the administration group, and Avastin was used as the positive control group, and the culture media without any drug was used as a blank control group, and the culture media were diluted to each predetermined concentration. Each dilution was separately added to a 96-well plate at 100 μL per well and incubated for 48 h at 37° C. in a 5% CO2 incubator. 20 μL of 5 mg/mL MTT was added to each well of a 96-well plate and incubation was continued for 4 h. The medium was aspirated and dissolved in 100 μL of DMSO per well. […] The formula is as follows: PI (%)=1−administration group/negative group
The test was repeated 3 times independently. The results obtained by the test were expressed as mean±SD, and a statistical T test was performed. *P<0.05 was a significant difference, and **P<0.01 was a very significant difference.

## C[C@@H]1C[C@H]2[C@@H]3CCC4=CC(=O)C=C[C@]4(C)[C@@]3(F)[C@@H](O)C[C@]2(C)[C@@]1(O)C(=O)CO [Dex, dexamethasone, reference compound]
Mouse spleen lymphocytes
  A570 nm/A630 nm: 0.3809 ± 0.1036 and 0.3832 ± 0.1042 and 0.3715 ± 0.1266 and 0.3905 ± 0.1094
  Inhibition Rate of spleen lymphocyte proliferation: 44.66% and 45.92% and 43.72%
Mouse spleen lymphocytes; Mus musculus, Lymphocyte, read-out: Inhibition Rate of spleen lymphocyte proliferation
  inhibition at 20 µg/mL: 44.8%
[1]
  IL-1β: 361.03 ± 18.27 pg/mL and 368.23 ± 18.27 pg/mL and 361.45 ± 19.17 pg/mL and 359.92 ± 19.17 pg/mL
  Inhibition Rate of IL-1β production: 60.24% and 60.58% and 60.97%
[1]; Mus musculus, Peritoneal macrophage, read-out: Inhibition Rate of IL-1β production
  inhibition at 20 µg/mL: 61.5%

## CC(=O)Oc1ccccc1C(=O)O [aspirin, reference compound]
[2]; 2 h after xylene
  Swelling: 3.07 ± 0.31** mg and 3.02 ± 0.41** mg and 3.01 ± 0.53** mg and 2.98 ± 0.53** mg
[2]; ear swelling vs control
  Inhibition rate: 50.02% and 51.11% and 50.87% and 50.93%

## Avastin: positive control in HUVEC migration and HRCEC proliferation tests [reference compound]
[3]
  cell migration number (Mean ± SD): 564.53 ± 60.36 and 560.64 ± 62.06 and 532.80 ± 60.06 and 572.06 ± 48.92
  inhibition rate of HUVEC migration: 46.78%* and 45.92%* and 48.22%* and 47.62%*
[4]; HRCEC proliferation
  Inhibition rate: 65.83%** and 64.93%** and 65.71%** and 66.07%**
[4]; HRCEC, MTT
  A570 nm-A630 nm: 0.4479 ± 0.08104 and 0.4636 ± 0.08322 and 0.4494 ± 0.08132 and 0.4518 ± 0.08013
